Source: patent US20150274661A1, “INDOL-AMIDE COMPOUNDS AS BETA-AMYLOID INHBITORS” (Hoffmann-La Roche Inc., priority 2012, published 2015)

System: Aβ42 secretion
Test: Cellular γ-secretase assay (inhibition of Aβ42 secretion)
Assay type: cell-based
Conditions: human neuroglioma H4 cells overexpressing human APP, 22 hours incubation
Description: Cellular γ-Secretase Assay
The compounds were investigated in accordance with the test given hereinafter.
Human neuroglioma H4 cells overexpressing human APP were plated at 30,000 cells/well/200 μL in 96-well plates in IMDM media containing 10% FCS, […] Hygromycin B and incubated for 2 hours at 37° C., 5% CO2 prior to adding test compounds.
Compounds for testing were dissolved in 100% Me2SO yielding in a 10 mM stock solution. Typically 12 μL of these solutions were further diluted in 1000 μL of IMDM media (w/o FCS). Subsequent 1:1 dilutions gave a ten point dose response curve. 100 μL of each dilution was added to the cells in 96-well plates. Appropriate controls using vehicle only and reference compound were applied to this assay. The final concentration of Me2SO was 0.4%.
After incubation for 22 hours at 37° C., 5% CO2, 50 μL supernatant was transferred into round-bottom 96-well polypropylene plates for detection of Aβ42. 50 μL assay buffer (50 mM Tris/Cl, pH 7.4, 60 mM NaCl, 0.5% BSA, 1% TWEEN 20) was added to the wells followed by the addition of 100 μL of detection antibody (ruthenylated BAP15 0.0625 μg/mL in assay buffer). 50 μL of a premix of capture antibody (biotinylated 6E10 antibody, 1 μg/mL) and Streptavidin-coated magnetic beads (Dynal M-280, 0.125 mg/mL) were preincubated for 1 hour at room temperature before adding the assay plates. Assay plates were incubated on a shaker for 3 hours at room temperature and finally read in the Bioveris M8 Analyser according to the manufacturer's instructions (Bioveris).
IC50 values for inhibition of Aβ42 secretion were calculated by nonlinear regression fit analysis using XLfit 4.0 software (IDBS).

SMILES	EC50 (Homo sapiens, 22 h)	EC50
CN1CCC(c2ccc3[nH]c(C(=O)Nc4cc(F)cc(F)c4)cc3c2)C1 (stereo not drawn) [Example 2, 5-(1-Methyl-pyrrolidin-3-yl)-1H-indole-2-carboxylic acid (3,5-difluoro-phenyl)-amide]	–	0.178 µM
N#Cc1cc(F)cc(NC(=O)c2cc3cc(C4CCNC4)ccc3[nH]2)c1 (stereo not drawn) [Example 9, N-(3-Cyano-5-fluorophenyl)-5-(pyrrolidin-3-yl)-1H-indole-2-carboxamide]	1.27 µM	–
CC(C)S(=O)(=O)N1CCC(c2ccc3[nH]c(C(=O)Nc4cc(F)cc(F)c4)cc3c2)C1 (stereo not drawn) [Example 12, 5-[1-(Propane-2-sulfonyl)-pyrrolidin-3-yl]-1H-indole-2-carboxylic acid (3,5-difluoro-phenyl)-amide]	–	1.71 µM
CC(C)C(=O)N1CCC(c2ccc3[nH]c(C(=O)Nc4cc(F)cc(F)c4)cc3c2)C1 (stereo not drawn) [Example 13, 5-(1-Isobutyryl-pyrrolidin-3-yl)-1H-indole-2-carboxylic acid (3,5-difluoro-phenyl)-amide]	0.713 µM	–
CC(C)N1CCC(c2ccc3[nH]c(C(=O)Nc4cccc(F)c4)cc3c2)C1 (stereo not drawn) [Example 14, N-(3-Fluorophenyl)-5-(1-isopropylpyrrolidin-3-yl)-1H-indole-2-carboxamide]	0.519 µM	–
O=C(Nc1cccc(F)c1)c1cc2cc(C3CCN(CC(F)(F)F)C3)ccc2[nH]1 (stereo not drawn) [Example 15, N-(3-Fluorophenyl)-5-(1-(2,2,2-trifluoroethyl)pyrrolidin-3-yl)-1H-indole-2-carboxamide]	1.25 µM	–
N#CCN1CCC(c2ccc3[nH]c(C(=O)Nc4cccc(F)c4)cc3c2)C1 (stereo not drawn) [Example 16, 5-(1-(Cyanomethyl)pyrrolidin-3-yl)-N-(3-fluorophenyl)-1H-indole-2-carboxamide]	0.373 µM	–
O=C(Nc1cccc(F)c1)c1cc2cc(C3CC(=O)N(Cc4ccccc4)C3=O)ccc2[nH]1 (stereo not drawn) [Example 17, 5-(1-Benzyl-2,5-dioxopyrrolidin-3-yl)-N-(3-fluorophenyl)-1H-indole-2-carboxamide]	8.46 µM	–
CC(C)C1(c2ccc3[nH]c(C(=O)Nc4ccc(F)c(F)c4)cc3c2)CNC(=O)C1 (stereo not drawn) [Example 18, 5-(3-Isopropyl-5-oxo-pyrrolidin-3-yl)-1H-indole-2-carboxylic acid (3,4-difluoro-phenyl)-amide]	2.32 µM	–
CCC1(c2ccc3[nH]c(C(=O)Nc4cc(F)cc(F)c4)cc3c2)CCC(=O)NC1=O (stereo not drawn) [Example 19, 5-(3-Ethyl-2,6-dioxo-piperidin-3-yl)-1H-indole-2-carboxylic acid (3,5-difluoro-phenyl)-amide]	2.63 µM	–
CC(C)N1CCCC(c2ccc3[nH]c(C(=O)Nc4cc(F)cc(F)c4)cc3c2)C1 (stereo not drawn) [Example 21, 5-(1-Isopropyl-piperidin-3-yl)-1H-indole-2-carboxylic acid (3,5-difluoro-phenyl)-amide]	0.177 µM	–
COc1ccc(NC(=O)c2cc3cc(C4CCN(C(C)C)CC4)ccc3[nH]2)cc1 [Example 26, 5-(1-Isopropyl-piperidin-4-yl)-1H-indole-2-carboxylic acid (4-methoxy-phenyl)-amide]	10.9 µM	–
CC(C)N1CCC(c2ccc3[nH]c(C(=O)Nc4ccc(F)c(F)c4)cc3c2)CC1 [Example 28, 5-(1-Isopropyl-piperidin-4-yl)-1H-indole-2-carboxylic acid (3,4-difluoro-phenyl)-amide]	0.852 µM	–
CC(C)N1CCC(c2ccc3[nH]c(C(=O)Nc4ccc(F)cc4F)cc3c2)CC1 [Example 29, 5-(1-Isopropyl-piperidin-4-yl)-1H-indole-2-carboxylic acid (2,4-difluoro-phenyl)-amide]	12.6 µM	–
Cc1cccc(NC(=O)c2cc3cc(C4CCCN(C(C)C)C4)ccc3[nH]2)c1 (stereo not drawn) [Example 33, 5-(1-Isopropyl-piperidin-3-yl)-1H-indole-2-carboxylic acid m-tolylamide]	1.58 µM	–

Second part, the compound after the results:

EC50 (Homo sapiens, 22 h)	EC50	SMILES
0.795 µM	–	O=C(Nc1cc(F)cc(F)c1)c1cc2cc(C3CCN(Cc4ccccc4)C3)ccc2[nH]1 (stereo not drawn) [Example 1, 5-(1-Benzylpyrrolidin-3-yl)-N-(3,5-difluorophenyl)-1H-indole-2-carboxamide]
1.24 µM	–	O=C(Nc1cccc(F)c1)c1cc2cc(C3CCN(Cc4ccccc4)C3)ccc2[nH]1 (stereo not drawn) [Example 3, 5-(1-Benzylpyrrolidin-3-yl)-N-(3-fluorophenyl)-1H-indole-2-carboxamide]
0.402 µM	–	CN1CCC(c2ccc3[nH]c(C(=O)Nc4cccc(F)c4)cc3c2)C1 (stereo not drawn) [Example 4, N-(3-Fluorophenyl)-5-(1-methylpyrrolidin-3-yl)-1H-indole-2-carboxamide]
0.631 µM	–	N#Cc1cc(F)cc(NC(=O)c2cc3cc(C4CCN(Cc5ccccc5)C4)ccc3[nH]2)c1 (stereo not drawn) [Example 5, 5-(1-Benzylpyrrolidin-3-yl)-N-(3-cyano-5-fluorophenyl)-1H-indole-2-carboxamide]
1.42 µM	–	CN1CCC(c2ccc3[nH]c(C(=O)Nc4cc(F)cc(C#N)c4)cc3c2)C1 (stereo not drawn) [Example 6, N-(3-Cyano-5-fluorophenyl)-5-(1-methylpyrrolidin-3-yl)-1H-indole-2-carboxamide]
0.253 µM	–	O=C(Nc1cc(F)cc(F)c1)c1cc2cc(C3CCNC3)ccc2[nH]1 (stereo not drawn) [Example 7, 5-Pyrrolidin-3-yl-1H-indole-2-carboxylic acid (3,5-difluoro-phenyl)-amide]
0.627 µM	–	O=C(Nc1cccc(F)c1)c1cc2cc(C3CCNC3)ccc2[nH]1 (stereo not drawn) [Example 8, N-(3-Fluorophenyl)-5-(pyrrolidin-3-yl)-1H-indole-2-carboxamide]
3.83 µM	–	O=C(Nc1cc(F)cc(F)c1)c1cc2cc(C3CCN(CC(F)(F)F)C3)ccc2[nH]1 (stereo not drawn) [Example 10, 5-[1-(2,2,2-Trifluoro-ethyl)-pyrrolidin-3-yl]-1H-indole-2-carboxylic acid (3,5-difluoro-phenyl)-amide]
0.321 µM	–	CC(C)N1CCC(c2ccc3[nH]c(C(=O)Nc4cc(F)cc(F)c4)cc3c2)C1 (stereo not drawn) [Example 11, 5-(1-Isopropyl-pyrrolidin-3-yl)-1H-indole-2-carboxylic acid (3,5-difluoro-phenyl)-amide]
0.832 µM	–	CC(C)N1CCC(c2ccc3[nH]c(C(=O)Nc4cccc(F)c4)cc3c2)CC1 [Example 20, 5-(1-Isopropyl-piperidin-4-yl)-1H-indole-2-carboxylic acid (3-fluoro-phenyl)-amide]
2.27 µM	–	CC(C)N1CCC(c2ccc3[nH]c(C(=O)Nc4cccc(C(F)(F)F)c4)cc3c2)CC1 [Example 22, 5-(1-Isopropyl-piperidin-4-yl)-1H-indole-2-carboxylic acid (3-trifluoromethyl-phenyl)-amide]
0.897 µM	–	CC(C)N1CCC(c2ccc3[nH]c(C(=O)Nc4cccc(Cl)c4)cc3c2)CC1 [Example 23, 5-(1-Isopropyl-piperidin-4-yl)-1H-indole-2-carboxylic acid (3-chloro-phenyl)-amide]
19.4 µM	–	CC(C)N1CCC(c2ccc3[nH]c(C(=O)Nc4ccccc4F)cc3c2)CC1 [Example 24, 5-(1-Isopropyl-piperidin-4-yl)-1H-indole-2-carboxylic acid (2-fluoro-phenyl)-amide]
2.68 µM	–	COc1cccc(NC(=O)c2cc3cc(C4CCN(C(C)C)CC4)ccc3[nH]2)c1 [Example 25, 5-(1-Isopropyl-piperidin-4-yl)-1H-indole-2-carboxylic acid (3-methoxy-phenyl)-amide]
8.36 µM	–	CC(C)N1CCC(c2ccc3[nH]c(C(=O)Nc4ccc(C(C)(C)C)cc4)cc3c2)CC1 [Example 27, 5-(1-Isopropyl-piperidin-4-yl)-1H-indole-2-carboxylic acid (4-tert-butyl-phenyl)-amide]
0.742 µM	–	CC(C)N1CCCC(c2ccc3[nH]c(C(=O)Nc4cc(F)cc(Cl)c4)cc3c2)C1 (stereo not drawn) [Example 30, N-(3-Chloro-5-fluorophenyl)-5-(1-isopropylpiperidin-3-yl)-1H-indole-2-carboxamide]
2.38 µM	–	CC(C)N1CCCC(c2ccc3[nH]c(C(=O)Nc4cc(F)cc(C#N)c4)cc3c2)C1 (stereo not drawn) [Example 31, 5-(1-Isopropyl-piperidin-3-yl)-1H-indole-2-carboxylic acid (3-cyano-5-fluoro-phenyl)-amide]
8.15 µM	–	CC(C)N1CCC(c2ccc3[nH]c(C(=O)Nc4ccc(F)nc4)cc3c2)CC1 [Example 32, 5-(1-Isopropyl-piperidin-4-yl)-1H-indole-2-carboxylic acid (6-fluoro-pyridin-3-yl)-amide]
0.926 µM	–	Cc1cc(F)cc(NC(=O)c2cc3cc(C4CCCN(C(C)C)C4)ccc3[nH]2)c1 (stereo not drawn) [Example 34, N-(3-Fluoro-5-methylphenyl)-5-(1-isopropylpiperidin-3-yl)-1H-indole-2-carboxamide]
1.39 µM	–	O=C(Nc1ccc(F)cc1)c1cc2cc(C3CCN(C(=O)c4ccccc4)CC3)ccc2[nH]1 [Example 35, 5-(1-Benzoyl-piperidin-4-yl)-1H-indole-2-carboxylic acid (4-fluoro-phenyl)-amide]
1.09 µM	–	CN1CCC(c2ccc3[nH]c(C(=O)Nc4ccc(F)cc4)cc3c2)CC1 [Example 36, 5-(1-Methyl-piperidin-4-yl)-1H-indole-2-carboxylic acid (4-fluoro-phenyl)-amide]
